Measurements taken from US6583114B2, “Fracture healing using pthrp analogs” (Roche Palo Alto LLC, priority 1997, dated 2003).

Experiments:
segmental femoral defect = assay: Segmental femoral defect rat fracture model (Example 1); type: in vivo; settings: for bone growth in the defects (weekly radiographic density of segmented bone defect) relative to control: FIG. 1, after four weeks of treatment; for bone growth in the defects (weekly radiographic density of segmented bone defect) relative to control / bone healing and fracture repair, treated versus control animals: subcutaneous daily; for radiographic density ratio of the segmented bone to the contralateral femur: FIG. 2, after six weeks of treatment, relative to control treated rats; for bone healing and fracture repair, treated versus control animals: radiography, sacrifice at 6 weeks
Method: T. A. Einhorn et al. “The Healing of Segmented Bone Defects Induced by Demineralized Bone Matrix. A Radiographic and Biomechanical Study,” J. Bone Joint, 66:274-279 (1984.
Adult male Sprague-Dawley rats weighing about 300 grams were maintained on Laboratory Rodent Diet 5001 (PMI Feeds, St. Louis, Mo.) and water ad libitum. All rats received only water for 12 hours prior to surgery. The animals were anesthetized prior to surgery by IP injection with ketamine (80 mg/kg) and xylazine (5 mg/kg). A single dose of procaine penicillin was given intramuscularly for prophylaxis against infection.
A lateral approach to the femur was used and a pre-drilled high density polyethylene plate was fixed along the anterior cortex of the femur. During this placement the periosteum of the femur was extensively stripped. A […] non-critical sized segmental defect was created in the mid portion of the femur shaft. The wound was closed with nylon and chromic sutures.
Postoperatively, the rats were placed in cages with 48 hour post-operative access to food pellets. The animals were monitored at least once daily and animals displaying any signs of illness were examined and given appropriate therapy if necessary.
Rats were divided into groups as shown in Table 1 and either a control vehicle (saline) or a PTHrP analog as described herein was administered subcutaneously daily starting on post-operative day 1. Radiographic analyses were performed weekly. Animals were sacrificed at 6 weeks and compared by radiography.
Sedated rats were placed in the prone position with hindlimbs externally rotated. Serial radiographs of each femur (involved femur and contralateral femur) were taken weekly starting with postoperative week 1. An aluminium phantom device with known density values was included in each radiograph for calibration. Each radiograph was placed on a translumination board and a picture taken using a DCS 420 digital Kodak camera. These images were then transferred to a Gateway 2000 IBM compatible computer and digitized using image analysis software (Sigma Scan©). An outline of the defect was traced and the average density of the area of the osteotomy measured in treated animals relative to control animals. […] The average density of the osteotomy was also compared to the average density of the contralateral femur for each weekly reading. […] After sacrifice (6 weeks), the femurs (experimental and contralateral) were dissected free of soft tissue. Fine grain radiographs were taken of the femurs in the lateral plane. The osteotomy was considered united when there was osseous continuity of the femur across more than 25% of the cross sectional diameter of the defect.

[1] = tested on: intramembraneous bone defect; assay: Intramembraneous bone healing, drill hole defects in distal femur and proximal tibia (Example 3); type: in vivo, rabbit; settings: for intramembraneous bone formation relative to vehicle treated animals: 2 or 10 μg/kg/day subcutaneous daily; for femoral defects healed / tibial defects healed: day 21
Description: Rabbits were generally anesthesized and subjected to surgery to create four surface defects, one in each distal femur and one in each proximal tibia. A posterior lateral surgical incision measuring approximately 3 cm. was made to expose the distal lateral femoral condyle. Bone proximal to the knee joint was subperiosteally exposed and a 5 mm drill hole was made, keeping the drill bit cool by constant irrigation. The wound was irrigated with normal saline. Deep tissue was closed with a running 3-0 chronic suture followed by closure of the subticular layer with a running 3-0 nylon suture and three to four interrupted stainless steel sutures. A second 3 cm. incision was made over the medial proximal tibia and a 5 mm drill hole was made in the proximal medial tibia. The wound was closed as described previously. The entire procedure was repeated on the contralateral limb.
Stock solutions of PTHrP analog C, (MAP1-10)^22-31His^26hPTHrP(1-34)NH2, and PTHRP analog D, (MAP1-10)^22-31hPTHrP(1-34)NH2, at 800 μg/ml were prepared by sterile filtration through an 0.22 micron filter and diluted in vehicle to either 20 μg/ml or 100 μg/ml just before administration. Vehicle was 30 mg/ml mannitol, 30/mg/ml sucrose, 0.12 mg/ml Tween™ 80, 0.17 mg/ml acetic acid and 2.33 mg/ml sodium acetate trihydrate. PTHrP analogs at either 2 μg/kg/day or 10 μg/kg/day was administered daily by subcutaneous injection to the surgically treated animals.
Animals were X-rayed weekly for the duration of the study. Densitometric measurements were made using a transilluminating scanner and MetaMorph™ (Universal Imaging, West Chester, Pa.) software. Radiographs of the lower extremities were performed in internal and external rotation on post-operative day 10 and 21. The animals were sacrificed on post-operative day 30. At the end of the study, animals were euthanized by pentobarbital overdose, tissues were harvested from the left and right femurs and tibias were analyzed by x-ray and histological analysis.

ulnar osteotomy = assay: Ulnar osteotomy model, corticosteroid induced delayed healing (Example 4); type: in vivo, rabbit
Method: Adult male New Zealand White rabbits were used in all experiments. In Part I, ten rabbits were divided into two equal groups and in Part II, twenty rabbits were divided equally. Non critical sized (1 mm) defects were created bilaterally in each rabbit. From two months prior to surgery through six weeks post-operative, all rabbits received daily subcutaneous injections of either prednisone (0.15 mg/kg) in sterile water (experimental group) or sterile saline (control group). Beginning on the first post-operative day, the experimental group were administered daily sub cutaneious infections of PTHrP analog D (0.01 mg/kg), while the control group received injections of normal saline. In Part I, animals were sacrificed at six weeks after creation of the osteotomy. In Part II, animals were sacrificed once radiographic union was reached bilaterally, or in cases of non-union at ten weeks post-operative. In both sets of experiments, radiological intensity and healing area were analyzed every other week starting two weeks (Part I) or four weeks (Part II) post-operatively. Serial radiographs of the forelimbs were taken and digitized and the bone area was quantified using image analysis software (Sigma Scan Pro). Photodensitometry was used to quantitate the mineral content of the newly formed bone at sites of osteotomy and callus formation. After sacrifice, high resolution faxitron radiographs were taken of both limbs in the anteroposterior and lateral planes, allowing for analysis of fracture callus dimension and size.

fracture healing = settings: intermittent treatment; ovariectomized rats; Kim et al.; cited from earlier work
[2] = high dose group (10 μg/kg/day s.c.)
[3] = low dose group (2 μg/kg/day s.c.), no complete healing in controls

(MAP1-10)^22-31Ala^19hPTHrP(1-34)NH2 [PTHrP analog B]
bone growth in the defects (weekly radiographic density of segmented bone defect) relative to control (segmental femoral defect): greater than in the control animals
radiographic density ratio of the segmented bone to the contralateral femur (segmental femoral defect): increased bone density

(MAP1-10)^22-31His^26hPTHrP(1-34)NH2 [PTHrP analog C]
intramembraneous bone formation relative to vehicle treated animals [1]: accelerated intramembraneous bone formation
bone growth in the defects (weekly radiographic density of segmented bone defect) relative to control (segmental femoral defect): greater than in the control animals
radiographic density ratio of the segmented bone to the contralateral femur (segmental femoral defect): increased bone density
union of the defect in high resolution radiographs (segmental femoral defect; FIG. 3, after treatment for six weeks, control defect remains non-united): has healed

(MAP1-10)^22-31c[Lys^13, Asp^17]hPTHrP(1-34)NH2
bone healing and fracture repair, treated versus control animals (segmental femoral defect): accelerated bone healing and fracture repair

(MAP1-10)^22-31hPTHrP(1-34)NH2 [PTHrP analog D]
torsional strength (stiffness and maximum torque) versus vehicle-treated control limbs (ulnar osteotomy; Part I, biomechanical): significantly greater
intensities at the osteotomy sites, anteroposterior and lateral faxitrons, treated versus control limbs (ulnar osteotomy; Part I, six weeks): significantly greater
intensity of proximal and distal ulnar diaphyses, treated versus control limbs (ulnar osteotomy; Part I, six weeks): significantly greater
intensity of the external calluses (lateral), treated versus control limbs (ulnar osteotomy; Part I, six weeks): also greater
limbs that achieved union (ulnar osteotomy; Part I, six weeks, 0.01 mg/kg daily s.c., prednisone, two out of ten in vehicle controls, FIG. 5): Nine out ten
area of the osteotomy versus vehicle control limbs (ulnar osteotomy; Part II, after sacrifice): significantly smaller
radiographic intensity at the osteotomy site, ulnar diaphysis and callus area versus vehicle control limbs (ulnar osteotomy; Part II, after sacrifice, p<0.05 at osteotomy site): greater radiographic intensity
radiographic intensity at the osteotomy site, external calluses and ulnar diaphyses versus control limbs (ulnar osteotomy; Part II, four weeks, p<0.01 at osteotomy site): greater radiographic intensity
combined callus areas versus control limbs (ulnar osteotomy; Part II, four weeks, p<0.05): greater
callus intensity or area versus control limbs (ulnar osteotomy; Part II, six weeks): no differences
intensity at the osteotomy site versus control limbs, in vivo radiography (ulnar osteotomy; Part II, six weeks): trend of increased intensity
union rate (ulnar osteotomy; Part II, six weeks, radiographic union): complete union rate
intramembraneous bone formation relative to vehicle treated animals [1]: accelerated intramembraneous bone formation
tibial defects filled with mineralized tissue ([1]; at sacrifice (day 30), high dose, radiographic analysis, p<0.01 vs control (less than 10%)): over 85%
percent fill of femoral defects versus control treated femoral defects ([1]; at sacrifice, p<0.01): significant greater percent fill
femoral defects healed [1, 2]: 50%
tibial defects healed [1, 2]: 75%
femoral defects healed [1, 3]: 40%
tibial defects healed [1, 3]: 40%

(MAP1-10)^22-31hSer^34PTHrP(1-34)THIQ NH2
bone healing and fracture repair, treated versus control animals (segmental femoral defect): accelerated bone healing and fracture repair

B1: parathyroid hormone (protein, UniProt P01270 32-115, looked up)
Parathyroid hormone: SVSEIQLMHNLGKHLNSMERVEWLRKKLQDVHNFVALGAPLAPRDAGSQRPRKKEDNVLVESHEKSLGEADKADVNVLTKAKSQ
modifications: Parathyroid hormone recombinant
notes: Recombinant human (1-84) parathyroid hormone, per the cited Kim et al. titles
fracture healing (fracture healing): improves fracture healing
